Results on 4 molecules are retold here after patent US20050119197A1, “Naadp analogues for modulating t-cell activity” (priority 2000, published 2005).

Common to all, as to type: cell-based, human
Experiment [1] deals with Jurkat T cells. Kind of experiment: Ca^2+ signals in single intact Jurkat T-lymphocytes microinjected with compound (ratiometric Fura2 Ca^2+ imaging). The note with it: for Ca^2+ signal after microinjection: 1 mM extracellular Ca^2+. The protocol: Jurkat T-lymphocytes were loaded with Fura2/AM and Ca^2+ was measured as detailed under ‘Experimental Procedures’. Cells were injected as described in Experimental Procedures’ in the presence of 1 mM extacellular Ca^2+. Data are presented as overlays of single tracings of individual cells (left panel). […] As a control vehicle buffer without NAADP^+ was injected (A,B). The time point of microinjection is indicated by arrows.
Data from FIG. 1 are shown as mean values (n=5 to 17) from time point 80 sec (Ca^2+ peak; A) or 400 sec (Ca^2+ plateau; B).
Jurkat T-lymphocytes were loaded with Fura2/AM and ratiometric Ca^2+ imaging and parallel microinjection in the presence of 1 mM extracellular Ca^2+ was carried out as detailed under ‘Experimental Procedures’. Cells were injected with 50 nM NAADP^+ (A) or NADP^+ (B). Shown are the averages from 13 (A) and 5 (B) cells. The time point of microinjection is indicated by arrows.
Jurkat T lymphocytes (subclone JMP) were cultured in RPMI 1640 medium containing the following additions: Glutamax I, HEPES (20 mM, pH 7.4), NCS (7.5%), penicillin (100 U/ml) and streptomycin (50 μg/ml; all obtained from Life Technologies, Eggenstein, Germany). The cells were cultured at 37° C. in a humidified atmosphere in the presence of 5% CO2.
Batches of 10^7 Jurkat T cells were loaded with Fura2/AM as described (Guse et al., 1993). Fura2-loaded cells (10^7 cells/5 ml) were kept at room temperature until use. Glass coverslips were coated first with bovine serum albumin (5 mg/ml), and then with poly-L-lysine (0.1 mg/ml). Small chambers consisting of a rubber O-ring were sealed on the coverslips by silicon grease. Then 90 μl of extracellular buffer (140 mM NaCl, 5 mM KCl, 1 mM MgSO4, 1 mM CaCl2, 20 mM Hepes, 1 mM NaH2PO4, 5.5 mM glucose, pH 7.4) was added, followed by addition of 10 μl cell suspension. The coverslip was mounted on the stage of an inverted microscope (Axiovert 100, Zeiss, Oberkochingen, Germany). Ratiometric Ca^2+-imaging was performed using a PhotoMed/Photon Technology (Wedel, Germany) digital imaging system built around the Axiovert 100 microscope. Illumination at 340 and 380 nm was carried out using a chopper/optical filter system. Images were captured by an intensified CCD camera (type C2400-77; spatial resolution: 525×487 pixel; Hamamatsu, Garching, Germany) and stored as individual 340 and 380 images on harddisk. Sampling rate was usually 5 sec for a pair of images (340 and 380 nm) using 100-fold magnification. Data analysis was performed off-line using PhotoMed/Photon Technology (Wedel, Germany) “Image master” analysis software. Ratio images (340/380) were constructed pixel by pixel, and changes in the ratio over time were measured by applying “regions-of-interest” on individual cells. Finally, ratio values were converted to Ca^2+-concentrations by external calibration.
Parallel Ca^2+ imaging and microin ection experiments require a firm attachment of the Jurkat T cells without preactivation of intracellular Ca^2+-signaling. This was achieved by the above mentioned coating procedure of the glass coverslips, as detailed earlier (Guse et al., 1997). The cells were kept in a small chamber (100 μl volume) in extracellular buffer (140 mM NaCl, 5 mM KCl, 1 mM MgSO4, 1 mM CaCl2, 20 mM Hepes, 1 mM NaH2PO4, 5.5 mM glucose, pH 7.4). Compounds to be microinjected were cleared from particles by either filtration through 0.45 μm filters, by centrifugation in an Eppendorf centrifuge at maximal speed for 10 min, or by both. Femtotips II (Eppendorf-Netheler-Hintz, Hamburg, Germany) were filled with 5 μl of reagent solution and inserted into the semi-automatic Eppendorf microinjection system (Transjector 5246, Micromanipulator 5171, Eppendorf-Netheler-Hintz, Hamburg, Germany). Injection parameters were: injection pressure: 80 hPa, compensatory pressure: 40 hPa, duration of injection: 0.5 sec, velocity of pipette: 700 μm/sec, pipette angle: 45°. Injections were performed into the upper part of the cell.

Experiment [2] relates to cADPR-mediated Ca^2+-signal. Kind of experiment: Co-injection of NAADP^+ with cADPR in Jurkat T-lymphocytes. The protocol:
(§1) Jurkat T-lymphocytes were loaded with Fura2/AM and ratiometric Ca^2+ imaging and parallel microinjection in the presence of 1 mM extracellular Ca^2+ was carried out as detailed under ‘Experimental Procedures’. […] Shown are (n=number of experiments): A/F, coinjection of NAADP (50 nM) and 8-OCH3-cADPR (100 μM) (n=7); B/G, injection of NAADP^+ (50 nM, n=10); C/H, coinjection of NAADP^+ (10 μM) and cADPR (10 μM) (n=7); D/I, coinjection of NAADP^+ (50 nM) and cADPR (10 μM) (n=5); E/J, injection of cADPR (10 μM, n=5).
(§2) Batches of 10^7 Jurkat T cells were loaded with Fura2/AM as described (Guse et al., 1993). Fura2-loaded cells (10^7 cells/5 ml) were kept at room temperature until use. Glass coverslips were coated first with bovine serum albumin (5 mg/ml), and then with poly-L-lysine (0.1 mg/ml). Small chambers consisting of a rubber O-ring were sealed on the coverslips by silicon grease. Then 90 μl of extracellular buffer (140 mM NaCl, 5 mM KCl, 1 mM MgSO4, 1 mM CaCl2, 20 mM Hepes, 1 mM NaH2PO4, 5.5 mM glucose, pH 7.4) was added, followed by addition of 10 μl cell suspension. The coverslip was mounted on the stage of an inverted microscope (Axiovert 100, Zeiss, Oberkochingen, Germany). […] Ratio images (340/380) were constructed pixel by pixel, and changes in the ratio over time were measured by applying “regions-of-interest” on individual cells. […]

The subject of experiment [3] is Ins(1,4,5)P3-mediated Ca^2+-release. Kind of experiment: Co-injection of NAADP^+ with Ins(1,4,5)P3 in Jurkat T-lymphocytes. As to the method: (§3) Jurkat T-lymphocytes were loaded with Fura2/AM and ratiometric Ca^2+ imaging and parallel microinjection in the presence of 1 mM extracellular Ca^2+ was carried out as detailed under ‘Experimental Procedures’. […] Shown are: A/F, coinjection of NAADP^+ (50 nM) and […] (40 μM) (n=7); B/G, injection of NAADP^+ (50 nM) (n=10); C/H, coinjection of NAADP^+ (10 μM) and Ins(1,4,5)P3 (4 μM) (n=9); D/I, coinjection of NAADP^+ (50 nM) and Ins(1,4,5)P3 (4 μM) (n=3); E/J injection of Ins(1,4,5)P3 (4 μM; n=8)
as §2

The test system of experiment [4] is OKT3-mediated Ca^2+-signaling (TCR/CD3 complex). Kind of experiment: Effect of microinjected NAADP^+ on OKT3-induced Ca^2+ signaling in single Jurkat T-lymphocytes. As to the method:
Jurkat T-lymphocytes were loaded with Fura2/AM and ratiometric Ca^2+ imaging and parallel microinjection in the presence of 1 mM extracellular Ca^2+ was carried out as detailed under ‘Experimental Procedures’. The cells were injected with different concentrations of NAADP^+ and then OKT3(10 μg/ml) was added. Injection of intracellular buffer (A), NAADP^+ (50 nM [B] and 10 μM [C]), and addition of OKT3 is indicated by arrows. Data are presented as a typical tracing from one individual cell, for each condition at least 3 experiments were carried out.
as §2

In experiment [5] the test system is Jurkat T cells. Briefly: Ca^2+ signals in single intact Jurkat T-lymphocytes microinjected with compound (ratiometric Fura2 Ca^2+ imaging). The note with it: 50 nM microinjected; nominal Ca^2+-free buffer; data not shown.
The subject of experiment [6] is NAADP^+-mediated Ca^2+-signaling. Kind of experiment: Co-injection of antagonists with NAADP^+: influence on NAADP^+-mediated Ca^2+-signaling in Jurkat T-lymphocytes. The protocol: as §1, §3
Batches of 10^7 Jurkat T cells were loaded with Fura2/AM as described (Guse et al., 1993). Fura2-loaded cells (10^7 cells/5 ml) were kept at room temperature until use. Glass coverslips were coated first with bovine serum albumin (5 mg/ml), and then with poly-L-lysine (0.1 mg/ml). Small chambers consisting of a rubber O-ring were sealed on the coverslips by silicon grease. Then 90 μl of extracellular buffer (140 mM NaCl, 5 mM KCl, 1 mM MgSO4, 1 mM CaCl2, 20 mM Hepes, 1 mM NaH2PO4, 5.5 mM glucose, pH 7.4) was added, followed by addition of 10 μl cell suspension. The coverslip was mounted on the stage of an inverted microscope (Axiovert 100, Zeiss, Oberkochingen, Germany). Ratiometric Ca^2+-imaging was performed using a PhotoMed/Photon Technology (Wedel, Germany) digital imaging system built around the Axiovert 100 microscope. Illumination at 340 and 380 nm was carried out using a chopper/optical filter system. […] Ratio images (340/380) were constructed pixel by pixel, and changes in the ratio over time were measured by applying “regions-of-interest” on individual cells. […]

Where [7] appears, read: Ins(1,4,6)PS3 40 μM co-injected with NAADP^+ 50 nM, vs NAADP^+ alone.

Take `Nc1ncnc2c1ncn2[C@@H]1O[C@H](COP(=O)(O)OP(=O)(O)OCC2OC([n+]3cccc(C(=O)[O-])c3)C(O)C2O)[C@@H](O)[C@H]1OP(=O)(O)O` (stereo in doubt) [NAADP^+, nicotinic acid adenine dinucleotide phosphate]: the “longlasting Ca^2+-signal as measured at 400 s” value in the experiment on Jurkat T cells [1] (100 nM, Ca^2+ plateau, FIG. 2B) was “only minor changes”. Also, the “optimal concentration for the initial Ca^2+-peak (bell shaped dose response curve)” value with Jurkat T cells [1] (Ca^2+ peak at 80 sec, FIG. 2A) was found to be 100 nM. Besides, the “Ca^2+ signal after microinjection” value is “without effect in most of the cells” in the experiment with Jurkat T cells [1] (pipette concentration 0.1 nM); “without effect in most of the cells” in the experiment on Jurkat T cells [1] (pipette concentration 1 nM); “stimulated repetitive, longlasting Ca^2+ spiking of low amplitude” with Jurkat T cells [1] (pipette concentration 10 nM); “evokes repetitive and longlasting Ca^2+ oscillations of low amplitude” in the experiment with Jurkat T cells [1] (pipette concentration 10 nM, listed as NAADP+); “an initial, rapidly occurring Ca^2+-peak with a high amplitude” in the experiment with Jurkat T cells [1] (pipette concentration 50 nM); “a rapid and high initial Ca^2+ peak followed by trains of smaller Ca^2+ oscillations” with Jurkat T cells [1] (pipette concentration 50 nM, listed as NAADP+). The “Ca^2+ signal after microinjection” value with Jurkat T cells [1] (pipette concentration 100 nM) is “a rapid and high initial Ca^2+ peak followed by trains of smaller Ca^2+ oscillations”; in the experiment on Jurkat T cells [1] (pipette concentration 1 μM), “gradually reduce the initial Ca^2+ peak”; with Jurkat T cells [1] (pipette concentration 10 μM), “gradually reduce the initial Ca^2+ peak”; in the experiment on Jurkat T cells [1] (pipette concentration 100 μM), “no signal was detectable”; in the experiment with Jurkat T cells [1] (pipette concentration 100 μM, listed as NAADP+), “complete self-inactivation of Ca^2+-signals”. For the same molecule, the “effect on cADPR-mediated Ca^2+ signals” value in experiment [2] (NAADP^+ 50 nM co-injected with cADPR 10 μM) is recorded as “did not significantly change”. In experiment [2] (NAADP^+ 10 μM (self-desensitizing) co-injected with cADPR 10 μM), the “effect on cADPR-mediated Ca^2+-signal” value is “massive decrease”. Also, the “Ca^2+ signal on co-injection with Ins(1,4,5)P3” value in experiment [3] (NAADP^+ 50 nM co-injected with Ins(1,4,5)P3 4 μM) was “high initial Ca^2+ peak”. In experiment [3] (NAADP^+ 10 μM (desensitizing) co-injected with Ins(1,4,5)P3 4 μM), the “effect on Ins(1,4,5)P3-mediated Ca^2+-release” value was “almost complete inhibition”. Also, the “effect on OKT3-mediated Ca^2+-signal” value in experiment [4] (NAADP^+ 50 nM microinjected prior to OKT3 10 μg/ml) is “did not significantly change”. Further, the “effect on OKT3-mediated Ca^2+-signaling” value in experiment [4] (NAADP^+ 10 μM (desensitizing) microinjected before OKT3 10 μg/ml) is recorded as “dramatic inhibition”. For the same molecule, in the experiment with Jurkat T cells [5], the “high initial Ca^2+-spike in nominal Ca^2+-free extracellular buffer” value is “massively reduced”.
On to `COc1nc2c(=N)n3cnc2n1C1OC(COP(=O)(O)OP(=O)(O)OCC2OC3C(O)C2O)C(O)C1O` (stereo not drawn) [8-OCH3-cADPR], for which the “effect on NAADP^+-mediated Ca^2+-signaling” value in experiment [6] (8-OCH3-cADPR 100 μM co-injected with NAADP^+ 50 nM) is recorded as “did not significantly affect”.
In the case of `OC1C(O)C(OP(O)(O)=S)C(OP(O)(O)=S)C(O)C1OP(O)(O)=S` (stereo not drawn) [Ins(1,4,6)PS3], in experiment [6] (setting [7]), the “decay of the initial Ca^2+ peak of NAADP^+-mediated signal” value is reported as “faster decay” and the “effect on initial Ca^2+ peak of NAADP^+-mediated signal” value is reported as “partial reduction”.
On to “nicotinamide-adenine dinucleotide phosphate [NADP^+]”, for which, in the experiment with Jurkat T cells [1] (pipette concentration 50 nM), the “Ca^2+ signal after microinjection” value is recorded as “completely without effect”.
